Converted amounts (≈) assume the structure as drawn.
How the values were obtained:
[1] = tested on: Respiratory syncytial virus; assay type: functional, organism-based; conditions: human respiratory syncytial virus, Long, HeLa
[2] = Cytotoxicity against HEL cells assessed as alteration in cell morphology after 3 days; assay type: cell-based; conditions: human, read-out: Activity
[3] = Cytotoxicity against HSB2 cells assessed as alteration in cell morphology; assay type: cell-based, CCRF-HSB-2; conditions: human, read-out: Activity
Yellow fever virus = assay type: functional, organism-based; conditions: Vero
Human betaherpesvirus 5 [4] = assay type: functional, organism-based; conditions: Human betaherpesvirus 5, Davis, HEL
Sindbis virus = assay type: functional, organism-based; conditions: Vero
HEL = assay: Cytotoxicity against HEL cells assessed as inhibition of cell growth after 3 days; assay type: cell-based; conditions: human, 72 h
Coxsackievirus B4 [5] = assay type: functional, organism-based; conditions: Enterovirus B, HeLa
Human alphaherpesvirus 1 [6] = assay type: functional, organism-based; conditions: Human alphaherpesvirus 1, KOS, HEL
Human alphaherpesvirus 3 [7] = assay: Antiviral activity against TK- VZV 07-1 in HEL cells assessed as inhibition of plaque formation; assay type: functional, organism-based; conditions: Human alphaherpesvirus 3, 07-1, HEL
Punta Toro virus = assay type: functional, organism-based; conditions: Vero
[8] = Cytotoxicity against CEM cells assessed as reduction of cell growth; assay type: cell-based; conditions: human, CEM (CCRF-CEM) cells
[9] = Cytotoxicity against C3H cells assessed as alteration in cell morphology; assay type: cell-based; conditions: mouse
[10] = Cytotoxicity against Vero cells assessed as alteration in cell morphology; assay type: cell-based; conditions: chlorocebus sabaeus
Human respirovirus 3 = assay type: functional, organism-based; conditions: Human respirovirus 3, Vero
Vaccinia virus = assay type: functional, organism-based; conditions: Orthopoxvirus vaccinia, Lederle, HEL
[11] = Cytotoxicity against Huh5-2 cells assessed as reduction of cell growth; assay type: cell-based, Huh-5-2; conditions: human
Coxsackievirus B4 [12] = assay type: functional, organism-based; conditions: Enterovirus B, Vero
Human alphaherpesvirus 3 [13] = assay: Antiviral activity against VZV OKA in HEL cells assessed as inhibition of plaque formation; assay type: functional, organism-based; conditions: Human alphaherpesvirus 3, OKA
Human adenovirus 2 = assay type: functional, organism-based; conditions: Human mastadenovirus C, HEL
[14] = Cytotoxicity against E6SM cells assessed as alteration in cell morphology; assay type: cell-based; conditions: human
[15] = tested on: Vesicular stomatitis virus; assay: microbe, parasite or virus in culture; conditions: E6SM
[16] = tested on: Mammalian orthoreovirus 1; assay type: functional, organism-based; conditions: Mammalian orthoreovirus 1, Vero
[17] = tested on: Human immunodeficiency virus 1; assay type: functional, organism-based; conditions: Human immunodeficiency virus 1, 3B, CCRF-CEM
[18] = tested on: Human immunodeficiency virus 2; assay type: functional, organism-based; conditions: Human immunodeficiency virus 2, ROD, CCRF-CEM
Human betaherpesvirus 5 [19] = assay type: functional, organism-based; conditions: Human betaherpesvirus 5, AD169, HEL
[20] = Cytotoxicity against HeLa cells assessed as alteration in cell morphology; assay type: cell-based; conditions: human
Human alphaherpesvirus 2 [21] = assay type: functional, organism-based; conditions: Human alphaherpesvirus 2, G, HEL
Human alphaherpesvirus 1 [22] = assay type: functional, organism-based; conditions: Human alphaherpesvirus 1, KOS, HEL; remark: listed apart in the source
[23] = tested on: Moloney murine sarcoma virus; assay: Antiviral activity against MSV in mouse C3H cells assessed as inhibition of virus-induced transformation after 6 days; assay type: functional, organism-based; conditions: 144 h
Human alphaherpesvirus 2 [24] = assay type: functional, organism-based; conditions: Human alphaherpesvirus 2, Lyons, HEL
[25] = tested on: Vesicular stomatitis virus; assay: microbe, parasite or virus in culture; conditions: HeLa
Hepatitis C virus = assay: Antiviral activity against HCV in Huh5-2 cells assessed as inhibition of HCV subgenomic replicon replication; assay type: functional, organism-based, Hepacivirus hominis; conditions: Huh-5-2

Compound | EC50 [1] | MCC at 72 h [2] | EC50 (Yellow fever virus) | EC50 (Human betaherpesvirus 5 [4]) | EC50 (Sindbis virus) | Activity (HEL) | EC50 (Coxsackievirus B4 [5]) | EC50 (Human alphaherpesvirus 1 [6]) | EC50 (Human alphaherpesvirus 3 [7]) | EC50 (Punta Toro virus) | CC50 [8] | MCC [9] | MCC [10] | EC50 (Human respirovirus 3) | EC50 (Vaccinia virus) | CC50 [11] | EC50 (Coxsackievirus B4 [12]) | EC50 (Human alphaherpesvirus 3 [13]) | MCC [14] | EC50 [15] | further results
NC(N)=NC(=O)NC[C@@H](CO)OCP(=O)(O)O | > 100 µg/mL | > 50 µg/mL | > 100 µg/mL | 36.8 µg/mL (≈ 136 µM) | > 100 µg/mL | > 50 µg/mL | > 100 µg/mL | > 50 µg/mL | > 50 µg/mL | > 100 µg/mL | > 100 µg/mL | > 100 µg/mL | > 100 µg/mL | > 100 µg/mL | > 100 µg/mL | > 50 µg/mL | > 100 µg/mL | > 50 µg/mL | > 100 µg/mL | > 100 µg/mL | MCC [3]: > 200 µg/mL; EC50 (Human adenovirus 2): > 100 µg/mL; EC50 [16]: > 100 µg/mL; EC50 [17]: > 100 µg/mL; EC50 [18]: > 100 µg/mL; EC50 (Human betaherpesvirus 5 [19]): 35.5 µg/mL (≈ 131 µM); MCC [20]: > 100 µg/mL; EC50 (Human alphaherpesvirus 2 [21]): > 50 µg/mL; EC50 (Human alphaherpesvirus 1 [22]): > 50 µg/mL; EC50 [23]: 68 µg/mL (≈ 252 µM); EC50 (Human alphaherpesvirus 2 [24]): > 50 µg/mL; EC50 [25]: > 100 µg/mL
Nc1ncn(C[C@@H](CO)OCP(=O)(O)O)c(=O)n1 | > 400 µg/mL | > 50 µg/mL | > 100 µg/mL | 0.054 µg/mL (≈ 0.193 µM) | > 80 µg/mL | >= 140 ug ml-1 | > 400 µg/mL | 0.24 µg/mL (≈ 0.857 µM) | 0.019 µg/mL (≈ 0.0678 µM) | > 80 µg/mL | 28 µg/mL (≈ 99.9 µM) | 20 µg/mL | 400 µg/mL | > 80 µg/mL | 2.56 µg/mL (≈ 9.14 µM) | > 50 µg/mL | > 80 µg/mL | 0.027 µg/mL (≈ 0.0964 µM) | > 400 µg/mL | > 400 µg/mL | MCC [3]: 16 µg/mL; EC50 [16]: > 80 µg/mL; EC50 [17]: > 100 µg/mL; EC50 [18]: > 100 µg/mL; EC50 (Human betaherpesvirus 5 [19]): 0.078 µg/mL (≈ 0.278 µM); MCC [20]: > 400 µg/mL; EC50 (Human alphaherpesvirus 2 [21]): 0.35 µg/mL (≈ 1.25 µM); EC50 (Hepatitis C virus): > 50 µg/mL; EC50 (Human alphaherpesvirus 1 [22]): 0.077 µg/mL (≈ 0.275 µM); EC50 [23]: 22 µg/mL (≈ 78.5 µM); EC50 (Human alphaherpesvirus 2 [24]): 0.25 µg/mL (≈ 0.892 µM); EC50 [25]: > 400 µg/mL
Nc1ncn(CCOCP(=O)(O)O)c(=O)n1 | > 80 µg/mL | > 100 µg/mL | > 100 µg/mL | 37 µg/mL (≈ 148 µM) | > 80 µg/mL | > 50 µg/mL | > 80 µg/mL | 17 µg/mL (≈ 68 µM) | 10 µg/mL (≈ 40 µM) | > 80 µg/mL | 96 µg/mL (≈ 384 µM) | 200 µg/mL | 400 µg/mL | > 80 µg/mL | > 100 µg/mL | > 50 µg/mL | > 80 µg/mL | 25 µg/mL (≈ 99.9 µM) | 400 µg/mL | > 80 µg/mL | EC50 [16]: > 80 µg/mL; EC50 [17]: > 100 µg/mL; EC50 [18]: > 100 µg/mL; EC50 (Human betaherpesvirus 5 [19]): 49 µg/mL (≈ 196 µM); MCC [20]: 400 µg/mL; EC50 (Human alphaherpesvirus 2 [21]): 25.8 µg/mL (≈ 103 µM); EC50 (Hepatitis C virus): > 50 µg/mL; EC50 (Human alphaherpesvirus 1 [22]): 9.9 µg/mL (≈ 39.6 µM); EC50 [23]: 7.5 µg/mL (≈ 30 µM); EC50 (Human alphaherpesvirus 2 [24]): 39.3 µg/mL (≈ 157 µM); EC50 [25]: > 80 µg/mL
Nc1cnn(C[C@@H](CO)OCP(=O)(O)O)c(=O)n1 | > 400 µg/mL | > 100 µg/mL | > 100 µg/mL | 37.3 µg/mL (≈ 133 µM) | > 80 µg/mL | > 50 µg/mL | > 400 µg/mL | 24.9 µg/mL (≈ 88.9 µM) | 18.4 µg/mL (≈ 65.7 µM) | > 80 µg/mL | > 100 µg/mL | 100 µg/mL | 400 µg/mL | > 80 µg/mL | 63.1 µg/mL (≈ 225 µM) | 111 µg/mL (≈ 396 µM) | > 80 µg/mL | 38.2 µg/mL (≈ 136 µM) | > 400 µg/mL | > 400 µg/mL | EC50 (Human adenovirus 2): > 100 µg/mL; EC50 [16]: > 80 µg/mL; EC50 [17]: > 100 µg/mL; EC50 [18]: > 100 µg/mL; EC50 (Human betaherpesvirus 5 [19]): 30 µg/mL (≈ 107 µM); MCC [20]: > 400 µg/mL; EC50 (Human alphaherpesvirus 2 [21]): 31.5 µg/mL (≈ 112 µM); EC50 (Hepatitis C virus): 750 µg/mL (≈ 2680 µM); EC50 (Human alphaherpesvirus 1 [22]): 8.84 µg/mL (≈ 31.6 µM); EC50 [23]: 170 µg/mL (≈ 607 µM); EC50 (Human alphaherpesvirus 2 [24]): ≥ 43.4 µg/mL; EC50 [25]: > 400 µg/mL

From ChEMBL document CHEMBL1142867, “Antiviral activity of triazine analogues of 1-(S)-[3-hydroxy-2-(phosphonomethoxy)propyl]cytosine (cidofovir) and related compounds” (J Med Chem, 2007)
